Measurements: US20100323016A1, “MODIFIED RELEASE FORMULATION AND METHODS OF USE” (priority 2008, published 2010)
Converted amounts (≈) assume the structure as drawn. Read-outs that look alike come from different tables or passages of the source.

Assay: Solubility of retigabine in aqueous solution at varying pH
Assay type: physicochemical
Text: Solubility was low in pH ranges of between pH 4.0 to pH 12.0.

**Q.** For `CCOC(=O)Nc1ccc(NCc2ccc(F)cc2)cc1N` [retigabine, N-(2-amino-4-(fluorobenzylamino)-phenyl)carbamic acid ethyl ester], which “solubility as a function of pH” value (above pH 3 (FIG. 5)) is on record?
**A.** The value was “drops off precipitously”.

**Q.** What about the solubility (pH 3.0, aqueous conditions at 37° C.) of the same molecule?
**A.** Its solubility is “nearly complete insolubility”.

**Q.** And the solubility (pH 4.0 to pH 12.0, aqueous solution at 37° C.)?
**A.** Its solubility is “low”.

**Q.** And the solubility (simulated gastric fluid, pH 1.5, aqueous solution at 37° C., maximum solubility, read-out: solubility)?
**A.** Its solubility is about 16 mg/mL (≈ 52.7 mM).

**Q.** What about the solubility (simulated gastric fluid, pH 2.0, aqueous solution at 37° C., read-out: solubility) of the same molecule?
**A.** The solubility was under 4 mg/mL.
